Earlier results, collected in patent US8092783B2, “Gadolinium containing prussian blue nanoparticles as nontoxic MRI contrast agents having high relaxivity” (Kent State University, priority 2009, dated 2012).

Details: magnetic field strength 1.5 Tesla; commercial or literature agents

SMILES: CNC[C@H](O)[C@@H](O)[C@H](O)[C@H](O)CO.CNC[C@H](O)[C@@H](O)[C@H](O)[C@H](O)CO.O=C([O-])CN(CCN(CC(=O)[O-])CC(=O)O)CCN(CC(=O)[O-])CC(=O)O.[Gd+3] [Magnevist@]
- relaxivity r1: 4.1 mM⁻¹ s⁻¹
